From patent US12324810B2, “3, 7-diamino-10H-phenothiazine salts and their use” (WisTa Laboratories Ltd., priority 2006, dated 2025)
Where two headings read alike, the source gives them in different places.

What was measured:
[1] = Partition coefficient, n-octanol/water, visible spectrophotometry; format: physicochemical
Procedure: In this study, aqueous solutions of selected compounds were shaken with n-octanol and aliquots concentrations in each phase determined by visible spectrophotometry. The log10P was then calculated for each compound, using the following formula:

[2] = molecular target: T1, full-length tau (T40) in fibroblast cells (3T6) (Homo sapiens, UniProt P10636); assay: Cell-based assay for establishing EC50 (generation of the 12 kD fragment)
T1 construct: fibroblast cells (3T6) express full-length tau (“T40”) under control of an inducible promoter; low constitutive levels of the PHF-core tau fragment (12 kD fragment); expressed in transfected cells; host or cells: 3T6 fibroblast cells
T1 sequence (P10636 2-441 isoform P10636-8 limits assumed): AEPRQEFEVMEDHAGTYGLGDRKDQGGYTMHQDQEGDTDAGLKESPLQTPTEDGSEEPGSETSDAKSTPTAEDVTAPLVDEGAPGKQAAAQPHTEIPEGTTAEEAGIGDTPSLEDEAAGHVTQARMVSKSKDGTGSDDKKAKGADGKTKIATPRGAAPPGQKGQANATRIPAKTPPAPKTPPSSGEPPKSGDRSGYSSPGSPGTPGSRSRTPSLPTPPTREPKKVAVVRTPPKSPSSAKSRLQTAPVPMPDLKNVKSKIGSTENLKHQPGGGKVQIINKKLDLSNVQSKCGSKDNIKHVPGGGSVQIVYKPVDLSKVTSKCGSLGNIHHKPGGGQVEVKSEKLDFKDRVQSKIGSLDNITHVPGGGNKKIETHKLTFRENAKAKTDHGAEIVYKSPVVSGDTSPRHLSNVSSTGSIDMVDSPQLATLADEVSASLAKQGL
From the text: Briefly, fibroblast cells (3T6) express full-length tau (“T40”) under control of an inducible promoter, and low constitutive levels of the PHF-core tau fragment (12 kD fragment). When T40 expression is induced, it undergoes aggregation-dependent truncation within the cell, N-terminally at ˜αα295 and C-terminally at ˜αα390, thereby producing higher levels of the 12 kD PHF-core domain fragment. […] Indeed, the quantitation of inhibitory activity of compounds with respect to proteolytic generation of the 12 kD fragment within cells can be described entirely in terms of the same parameters that describe inhibition of tau-tau binding in vitro. That is, the extent of proteolytic generation of the 12 kD fragment within cells is determined entirely by the extent of tau-tau binding through the repeat domain. The availability of the relevant proteases within the cell is non-limiting.
Results are expressed as the concentration at which there is a 50% inhibition of generation of the 12 kD fragment. This is referred to as the EC50 value.

[3] = Stability of the solid form in storage; format: physicochemical
Procedure: A batch of N,N,N′,N′-tetramethyl-10H-phenothiazine-3,7-diamine bis(hydrogen bromide) was prepared in April 2006 and analysed by NMR. […] The colour of the solid remained consistent over time. It appears that the molecule, in this form, is stable under these conditions over this time period.

[4] = system: fibroblast cells (3T6); format: cell-based; settings: therapeutic index, RxI = LD50/EC50
Procedure: Toxicity of the compounds described herein was assessed in the cell based assay used to assess EC50. […] Alternatively, a kit from Promega UK (CytoTox 96) was used, again according to the manufacturer's instructions.

[5] = Stability in aqueous solution (percent reduced form by absorbance at 610 nm and 665 nm); format: physicochemical
Procedure: The compounds were weighed into universal containers. Enough water was added to yield a 1 mM solution, and the mixture stirred to dissolve the solid. The absorbance was determined at 610 nm and 665 nm for 50 μL samples (in triplicate) of each of the solutions at various time points. The initial time point taken was at 10 minutes as the compounds took time to dissolve completely. A UV/visible spectrum was also recorded at time points 20 minutes, 3 hours, and 18 hours.

[6] = concentration at which there is a 50% inhibition of generation of the 12 kD fragment, 3T6 cells, read-out: EC50

Structure (SMILES)	Log10P [1]	EC50 [2, 6]	RxI [4]	further results
CN(C)c1ccc2c(c1)Sc1cc(N(C)C)ccc1N2 [Compound B3, N,N,N′,N′-Tetramethyl-10H-phenothiazine-3,7-diamine bis(hydrogen chloride)]	−0.13	500 nM	88	state of solid form after storage ([3]; solid form, after 2 years in storage): substantially reduced
Nc1ccc2c(c1)Sc1cc(N)ccc1N2 [Compound B4, 3,7-Diamino-phenothiazine bis(hydrogen chloride)]		2230 nM		
CN(C)c1ccc2c(c1)Sc1cc(N(C)C)ccc1N2 [Compound B6, N,N,N′,N′-Tetramethyl-10H-phenothiazine-3,7-diamine bis(hydrogen iodide)]	−0.498		303	EC50 [2]: 380 nM; time remaining substantially stable (>50% reduced form) ([5]; 1 mM solution in water): ~3 h; rate of autoxidation ([5]; aqueous solution, compared to the chloride compound (Compound B3)): slower
CN(C)c1ccc2c(c1)Sc1cc(N(C)C)ccc1N2 [N,N,N′,N′-Tetramethyl-10H-phenothiazine-3,7-diamine bis(hydrogen bromide]				stability of solid after storage (NMR, colour) ([3]; solid, 10 months of storage in the dark at room temperature): stable
